Consider 5 molecules from ChEMBL document CHEMBL5223096, “Potential therapeutic targets from Mycobacterium abscessus (Mab): recently reported efforts towards the discovery of novel antibacterial agents to treat Mab infections” (RSC Med Chem, 2022).

Values after ≈ are worked out from the molar mass of the structure shown. Numbered stars: 1 amine (or outer) side, 2 acyl side, 3 side chain; on linkers, the order of the positions; unused ones are H or OH. Bridge positions count the residues as written; N and C are the ends. Square brackets hold non-standard residues; d marks the D form. Peptide text beside a SMILES is read from it. * marks the point of attachment. Phe(3R-OH) = O=C([C@@H](N[*:1])[C@H](O[*:3])c1ccccc1)[*:2]; NMeTrp(4-OMe) = CN[C@@H](Cc1c[nH]c2cccc(OC)c12)C(=O)O; NMeaIle = CC[C@@H](C)[C@H](NC)C(=O)O; NMe2Val = CC(C)[C@@H](C(=O)*)N(C)C; NMeT = CN[C@H](C(=O)O)[C@@H](C)O; NMeL = CN[C@@H](CC(C)C)C(=O)O; NMeV = CN[C@H](C(=O)O)C(C)C

Experiment [1] deals with Mycobacteroides abscessus. Briefly: Antimycobacterial activity against Mycobacterium abscessus. In kind it is functional.
Experiment [2] can be described thus: Binding affinity to Mycobacterium abscessus ClpC1 by SPR assay. Set-up: species or system Mycobacteroides abscessus. (Surface plasmon resonance follows binding to a sensor surface in real time, without labels.)
In experiment [3] the test system is Mycobacterium tuberculosis. Briefly: Antimycobacterial activity against Mycobacterium tuberculosis. Format: functional.

Consider `Cc1cc(C)c2cc(C(=O)NC3CCCCCC3)[nH]c2c1`, for which the MIC in experiment [1] was found to be 0.06 µM (≈ 0.0171 µg/mL).
On to `CC(C)COc1nn(-c2ccc(Oc3ccccc3)cc2)c(=O)o1`, for which, in experiment [1], the MIC50 was found to be 33 µM (≈ 10.8 µg/mL).
In turn, `C/C=C/C[C@@H]1NC(=O)[C@H](CC(C)C)N2C(=O)[C@H](C[C@H](C)[C@H]2O)N(C)C(=O)[C@H](C)NC(=O)[C@H](Cc2ccc(O)c([N+](=O)[O-])c2)NC(=O)[C@H](CC(C)C)N(C)C(=O)[C@H](Cc2cn(C(C)(C)C3CO3)c3ccccc23)NC1=O` (some centres not stated) returned a Kd in experiment [2] of 0.1 µM. The MIC in experiment [1] came to 0.42 µM (≈ 0.438 µg/mL).
Take `CC[C@@H](C)[C@@H](C(=O)N[C@@H]1C(=O)N(C)[C@@H]([C@@H](C)O)C(=O)N[C@@H](C(C)C)C(=O)N(C)[C@@H](CC(C)C)C(=O)N[C@@H](C(C)C)C(=O)N(C)[C@@H](C(C)C)C(=O)N(C)[C@@H](Cc2c[nH]c3cccc(OC)c23)C(=O)N[C@@H](C(C)C)C(=O)N[C@@H]([C@H](O)c2ccccc2)C(=O)N[C@@H](C(C)C)C(=O)O[C@@H]1C)N(C)C(=O)[C@@H](NC(=O)[C@H](C(C)C)N(C)C)C(C)C` (NMe2Val-V[NMeaIle]T[NMeT]V[NMeL]V[NMeV][NMeTrp(4-OMe)]V[Phe(3R-OH)]V; ester 3-C): the Kd in experiment [2] is 0.1 µM. Further, the MIC in experiment [3] was determined as 0.16 µM (≈ 0.256 µg/mL).
The molecule `CCCCCCCCCCCCCCCCOP1(=O)OCCC(C(=O)OC)=C(C)O1` (racemic) returned an MIC50 in experiment [1] of 0.37 µM (≈ 0.165 µg/mL).

By MIC is commonly meant the smallest concentration in the dilution series that meets the test's criterion for growth inhibition. In general, MIC50 refers to the lowest concentration that inhibits either 50% of growth or 50% of the strains tested, depending on the study. In general, Kd refers to the concentration at which binding is half-saturated. Lower therefore signals a tighter complex.
